# Source: patent US20250084371A1, “CELL MONOLAYER BLOCKING AGENTS AND USES THEREOF” (LUMICKS CA HOLDING B.V., priority 2021, published 2025)
# Columns and labels:
# [1] = tested on: IFNγ; experiment: IFNγ release assay (ELISA), primary T cells co-incubated with blocked Raji cells; assay type: cell-based, human; settings: 1:1, 7 h
# Experimental: Target cells were treated with DMSO or blocking agent using the protocol above, resuspended at 1 million/mL in RPMI complete medium and mixed at 1:1 ratio with the indicated effector cells. For the IFNγ release assay the samples were incubated for 7 h in the incubator before spinning down and use of the supernatant to perform the ELISA (Biolegend, ELISA MAX™ Deluxe Set Human IFNγ). For the CD69 assay, the target and effector cells prepared as described above were co-incubated for 5 h in the incubator before being stained using anti-CD3 and anti-CD69 antibodies (clone SK7 and FN50, Biolegend).
# [2] = tested on: Raji cells; experiment: Monolayer integrity/viability (Trypan Blue) of Raji seeded PLL-coated chips after blocking; assay type: cell-based; settings: Raji on PLL, vs DMSO vehicle
# Experimental: (§1) z-Movi® chips (obtained and as available from LUMICKS (<https://lumicks.com/products/z-movi-cell-interaction-studies/>) were coated with Poly-L-Lysine (#P4707-50ML, Sigma) diluted 1:5 in PBS for 10 minutes at room temperature, or with human Fibronectin (#F0895, Sigma) at 0.1 mg/mL overnight at room temperature. The following day the target cells were seeded in serum free RPMI medium, incubated 1 h, and subsequently the medium replaced with complete RPMI medium. The chips were incubated for an additional hour before the blocking reaction. The effector cells were stained with CellTrace™ Far Red dye (Thermo Fisher Scientific) at 1 μM for 15 minutes in PBS at 37° C., then resuspended at 10 million/mL in complete medium and used for the avidity experiments. The stained effector cells (i.e. cells of interest) were introduced in the target cell-seeded flow cell, incubated for 5 minutes, and then a 1 to 1000 pN force ramp was applied throughout 2.5 minutes using z-Movi® operated with the Oceon V1.2 software. At the end of the avidity measurements, the monolayer was stained with a Trypan Blue solution to qualitatively assess the target cell viability. The avidity experiment analysis was performed using Oceon V1.2. […]
# [3] = tested on: PLL-coated chips; experiment: Binding of Jurkat cells to PLL-coated chips after blocking (z-Movi avidity, no target cells); assay type: cell-based
# Experimental: as §1
# [4] = tested on: human fibronectin-coated chips; experiment: Binding of Jurkat cells to human fibronectin-coated chips after blocking (z-Movi avidity, no target cells); assay type: cell-based
# Experimental: as §1
# [5] = tested on: Raji cells; experiment: Avidity of UNT or FMC63-CAR primary T cells to Raji seeded PLL-coated chips after blocking; assay type: cell-based
# Experimental: Untransduced or FMC63-transduced primary CAR T cells were obtained from ProMab Biotechnologies Inc. (Anti-CD19-TF-CD28-CD3z (PMC-152)) propagated with CD3/CD28 dynabeads (Thermo Fisher Scientific) and 90 IU/mL of IL-2 (Miltenyi Biotec), or Untransduced or FMC63 CAR transduced Jurkat were used (Creative Biolabs).
# (§2) z-Movi® chips (obtained and as available from LUMICKS (<https://lumicks.com/products/z-movi-cell-interaction-studies/>) were coated with Poly-L-Lysine (#P4707-50ML, Sigma) diluted 1:5 in PBS for 10 minutes at room temperature, or with human Fibronectin (#F0895, Sigma) at 0.1 mg/mL overnight at room temperature. The following day the target cells were seeded in serum free RPMI medium, incubated 1 h, and subsequently the medium replaced with complete RPMI medium. The chips were incubated for an additional hour before the blocking reaction. The effector cells were stained with CellTrace™ Far Red dye (Thermo Fisher Scientific) at 1 μM for 15 minutes in PBS at 37° C., then resuspended at 10 million/mL in complete medium and used for the avidity experiments. The stained effector cells (i.e. cells of interest) were introduced in the target cell-seeded flow cell, incubated for 5 minutes, and then a 1 to 1000 pN force ramp was applied throughout 2.5 minutes using z-Movi® operated with the Oceon V1.2 software. At the end of the avidity measurements, the monolayer was stained with a Trypan Blue solution to qualitatively assess the target cell viability. The avidity experiment analysis was performed using Oceon V1.2.
# (§3) The MS(PEG)4 or BS(PEG)5 (Thermo Fisher Scientific) (see FIG. 2) were dissolved in anhydrous DMSO (Merck) then diluted in PBS to obtain a final concentration of 5 mM or as otherwise indicated. The target cell-seeded chips (or coated only with PLL or fibronectin) were rinsed with PBS before introducing the blocking solution (or a PBS solution with DMSO as control sample). The chips were incubated for 15 minutes at room temperature and the reaction was stopped with TBS (50 mM Tris pH7.4, 150 mM NaCl). The chips were subsequently equilibrated with complete medium and used for avidity measurements. Furthermore, blocking was also tested with incubations of 1 hour with serum free RPMI medium, 20% fetal bovine serum (FBS), 50% FBS, 50% human serum (HS), 10% bovine serum albumin (BSA), NALM6 condition medium.
# We then performed the experiments with the blocking agents with primary T cells expressing a FMC63 CAR (or not) layered on Raji cells. We observed that the observations made with Jurkat cells were recapitulated showing a considerable improvement of the negative/positive window on the chips subjected to the blocking reaction (FIG. 7).
# [6] = tested on: Raji cells; experiment: Avidity of UNT or FMC63-CAR Jurkat cells to Raji seeded PLL-coated chips after blocking; assay type: cell-based; settings: for percentage of effector cells bound to the target cells at the end of the force ramp (1000 pN) / difference in the positive/negative window: PLL; for percentage of effector cells bound to the target cells at the end of the force ramp (1000 pN): mean n=2; for difference in the positive/negative window: CAR minus UNT bound at 1000 pN, Raji; for binding of the CAR sample (cells bound) after blocking: FMC63 CAR Jurkat, from about 80% without blocking; for binding of the CAR sample (cells bound) after blocking / background binding of the UNT sample (cells bound) after blocking: Raji-seeded PLL chips; for background binding of the UNT sample (cells bound) after blocking: UNT Jurkat, from about 50% without blocking
# Experimental: as §2, §3
# We next validated the use of NHS-based blockers to reduce background binding of the effector cells in the presence of the monolayer. We used as cells of interest a Jurkat cell line transduced to express the FMC63 Chimeric Antigen Receptor (CAR) or untransduced (UNT) as control cells. As target cells we used the Raji cell line, endogenously expressing the CD19 antigen, seeded on PLL coated chips.
# [7] = tested on: CD69 activation marker; experiment: CD69 activation assay, Jurkat co-incubated with blocked Raji cells; assay type: cell-based; settings: 1:1, 4 h
# Experimental: Target cells were treated with DMSO or blocking agent using the protocol above, resuspended at 1 million/mL in RPMI complete medium and mixed at 1:1 ratio with the indicated effector cells. For the IFNγ release assay the samples were incubated for 7 h in the incubator before spinning down and use of the supernatant to perform the ELISA (Biolegend, ELISA MAX™ Deluxe Set Human IFNγ). […]
# [8] = tested on: Raji cells; experiment: Avidity of UNT or FMC63-CAR primary T cells to Raji covalent monolayer on PLL-coated chips; assay type: cell-based; settings: 10 mM crosslinker, mean n=2
# Experimental: Untransduced or FMC63-transduced primary CAR T cells were obtained from ProMab Biotechnologies Inc. (Anti-CD19-TF-CD28-CD3z (PMC-152)) propagated with […] CD3/CD28 dynabeads (Thermo Fisher Scientific) and 90 IU/mL of IL-2 (Miltenyi Biotec). Raji cells were used as target cells. Primary CAR-T cells were cultured in RPMI+Glutamax supplemented with 50 μM β-Mercaptoethanol, 5% heat inactivated human serum, and Penicillin-Streptomycin.
# z-Movi® chips (obtained and as available from LUMICKS) were coated with Poly-L-Lysine (#P4707-50ML, Sigma) diluted 1:5 in PBS for 10 minutes at room temperature. The following day the target cells were seeded in PBS, incubated 0.75 h, and subsequently the monolayers were left untreated or reacted with BS(PEG)9. For negative control the PLL coated chips were reacted with 5 mM MS(PEG)4 before seeding the Raji cells. The effector cells were stained with CellTrace™ Far Red dye (Thermo Fisher […] Scientific) at 1 μM for 15 minutes in PBS at 37° C., then resuspended at 10 million/mL in complete medium and used for the avidity experiments. The stained effector cells (i.e. cells of interest) were introduced in the target cell-seeded flow cell, incubated for 5 minutes, and then a 1 to 1000 pN force ramp was applied throughout 2.5 minutes using z-Movi® operated with the Oceon® V1.2 software. […]
# [9] = tested on: Hela-CD19 cells; experiment: Avidity of UNT or FMC63-CAR Jurkat to Hela-CD19 seeded PLL-coated chips after blocking; assay type: cell-based; settings: Hela-CD19 on PLL, blocker 5 mM; for percentage of effector cells bound to the target cells at the end of the force ramp (1000 pN): mean n=2
# Experimental: as §2
# as §3, with “medium. […]” for “medium.”
# [10] = tested on: Hela-CD19 cells; experiment: Avidity of UNT or FMC63-CAR Jurkat to Hela-CD19 seeded fibronectin-coated chips after blocking; assay type: cell-based; settings: Hela-CD19 on human fibronectin, blocker 5 mM; for percentage of effector cells bound to the target cells at the end of the force ramp (1000 pN): mean n=2
# Experimental: as §2
# as §3, with “medium. […]” for “medium.”
# [11] = CAR Jurkat + Raji treated with 5 mM blocker 15 minutes
# [12] = UNT Jurkat + Raji treated with 5 mM blocker 15 minutes
smiles,measurement,setting,value
O=C(CCOCCOCCOCCOCCOCCC(=O)ON1C(=O)CCC1=O)ON1C(=O)CCC1=O [BS(PEG)5],amount of IFNγ in co-culture supernatants,[1]; CAR primary T cells + Raji treated with 4.5 mM blocker 15 minutes,1633 pg/mL
same,amount of IFNγ in co-culture supernatants,[1]; UNT primary T cells + Raji treated with 4.5 mM blocker 15 minutes,11 pg/mL
same,"monolayer integrity (confluency, cell morphology, staining)",[2]; blocker 4.5 mM,"No differences in target cell monolayer confluency, cell morphology or staining could be detected"
same,percentage of Jurkat cells bound at the end (1000 pN) of the avidity measurement,[3]; blocking agent 1 mM,92.9%
same,percentage of Jurkat cells bound at the end (1000 pN) of the avidity measurement,[3]; blocking agent 5 mM,1.2%
same,percentage of bound Jurkat cells at the end of the force ramp (1000 pN),[4]; blocking agent 1 mM,52.8%
same,percentage of bound Jurkat cells at the end of the force ramp (1000 pN),[4]; blocking agent 5 mM,43.2%
same,percentage of effector cells bound to the target cells at the end of the force ramp (1000 pN),"[5]; CAR primary T cells + Raji, blocker 4.5 mM, mean n=2 (FIG. 7A)",66.3%
same,percentage of effector cells bound to the target cells at the end of the force ramp (1000 pN),"[5]; UNT primary T cells + Raji, blocker 4.5 mM, mean n=2 (FIG. 7A)",39.9%
same,percentage of effector cells bound to the target cells at the end of the force ramp (1000 pN),"[6]; CAR (FMC63-transduced) effector cells + Raji, blocker 4.5 mM",78.3%
same,difference in the positive/negative window,[6]; blocker 4.5 mM,62.7%
same,binding of the CAR sample (cells bound) after blocking,[6],about 70%
same,percentage of effector cells bound to the target cells at the end of the force ramp (1000 pN),"[6]; UNT (untransduced) effector cells + Raji, blocker 4.5 mM",15.6%
same,background binding of the UNT sample (cells bound) after blocking,[6],about 20%
same,percentage of CD69 positive cells,[7]; [11],30%
same,percentage of CD69 positive cells,[7]; [12],0.6%
O=C(CCOCCOCCOCCOCCOCCOCCOCCOCCOCCC(=O)ON1C(=O)CCC1=O)ON1C(=O)CCC1=O [BS(PEG)9],percentage of effector cells bound to the target cells at the end of the force ramp (1000 pN),[8]; CAR primary T cells + Raji,61.4%
same,percentage of effector cells bound to the target cells at the end of the force ramp (1000 pN),[8]; UNT primary T cells + Raji,10.3%
COCCOCCOCCOCCC(=O)ON1C(=O)CCC1=O [MS(PEG)4],"monolayer integrity (confluency, cell morphology, staining)",[2]; blocker 5 mM,"No differences in target cell monolayer confluency, cell morphology or staining could be detected"
same,percentage of effector cells bound to the target cells at the end of the force ramp (1000 pN),[9]; CAR Jurkat,68%
same,pos/neg window after the blocking reaction,[9]; control window 49.4%,63%
same,percentage of effector cells bound to the target cells at the end of the force ramp (1000 pN),[9]; UNT Jurkat,5%
same,percentage of effector cells bound to the target cells at the end of the force ramp (1000 pN),"[5]; CAR primary T cells + Raji, mean n=3 (FIG. 7B)",67.8%
same,percentage of effector cells bound to the target cells at the end of the force ramp (1000 pN),"[5]; UNT primary T cells + Raji, mean n=3 (FIG. 7B)",42.6%
same,percentage of effector cells bound to the target cells at the end of the force ramp (1000 pN),[10]; CAR Jurkat,70.1%
same,pos/neg window after the blocking reaction,[10]; control window 33.3%,53.3%
same,percentage of effector cells bound to the target cells at the end of the force ramp (1000 pN),[10]; UNT Jurkat,16.8%
same,percentage of effector cells bound to the target cells at the end of the force ramp (1000 pN),"[6]; CAR (FMC63-transduced) effector cells + Raji, blocker 5 mM",84.7%
same,difference in the positive/negative window,[6]; blocker 5 mM,51.9%
same,binding of the CAR sample (cells bound) after blocking,[6],about 70%
same,percentage of effector cells bound to the target cells at the end of the force ramp (1000 pN),"[6]; UNT (untransduced) effector cells + Raji, blocker 5 mM",32.8%
same,background binding of the UNT sample (cells bound) after blocking,[6],about 20%
same,percentage of CD69 positive cells,[7]; [11],27%
same,percentage of CD69 positive cells,[7]; [12],0.8%
